Measurements reported in patent US9994535B2, “Desferrithiocin polyether analogues” (University of Florida Research Foundation, Inc., priority 2005, dated 2018).
Values belong to the molecule of their own block, whether it stands above or below them.

Tests used:
[1] = Iron clearing efficiency in non-iron overloaded, bile duct cannulated rat model; format: in vivo; conditions: for Efficiency (%) (iron clearing efficiency): 300 μmol/kg, 24 hour iron excretion, 2:1 ligand-iron complex; for Iron clearing efficiency compared with parent drug (S)-4-(HO)-DADFT: same micromole per kilogram dose
Description: Iron Clearing Efficiency of Iron Chelators in a Non-Iron Overloaded, Bile Duct Cannulated Rat Model
Studies were performed in the non-iron overloaded, bile duct cannulated rodent model with the compounds shown below.
Briefly, male Sprague-Dawley rats averaging 450 g were housed in Nalgene plastic metabolic cages during the experimental period and given free access to water. The animals were anesthetized using sodium pentobarbital (55 mg/kg) administered intraperitoneally. The bile duct was cannulated using 22-gauge polyethylene tubing. The cannula was inserted into the duct about 1 cm from the duodenum and tied snugly in place. After threading through the shoulder, the cannula was passed from the rat to the swivel inside a metal torque-transmitting tether, which was attached to a rodent jacket around the animal's chest. The cannula was directed from the rat to a Gilson microfraction collector (Middleton, Wis.) by a fluid swivel mounted above the metabolic cage. Three hour bile samples were continuously collected for a minimum of 24 hours up to 48 hours. However, the efficiency calculations are based on the 24 hour iron excretion. The efficiency of each chelator was calculated on the basis of a 2:1 ligand-iron complex. The efficiencies in the rodent model were calculated by subtracting the iron excretion of control animals from the iron excretion of treated animals. This number was then divided by the theoretical output; the result is expressed as a percentage (Bergeron, R. J., et al., J. Med Chem. 42:95-108 (1999) the entire contents of which are incorporated herein by reference). The urine sample was taken at 24 hours and handled as previously described in Bergeron, R. J., et al., J. Med. Chem. 34:2072-2078 (1991), the entire contents of which are incorporated herein by reference.

[2] = Tissue and plasma concentrations upon subcutaneous administration to rats; format: in vivo; conditions: rat, sc 300 μmol/kg
Description: Tissue Distribution of a Polyether-Substituted (S)-4′-Hydroxydesazadesferrithiocin Analogue [(S)-4′-(HO)-DADFT-PE] Upon Subcutaneous Administration to Rats
A measurement was made assessing (S)-4′-(HO)-DADFT-PE and (S)-4′-(HO)-DADFT tissue and plasma concentrations upon subcutaneous administration at times from 2-8 h post dosing. The rats were given this compound subcutaneously at 300 μmol/kg. The tissue and plasma level were obtained as described in Bergeron et al. J Med Chem. 48:821-831 (2005), the entire contents of which are incorporated herein by reference.

SMILES: CCOC(=O)[C@@]1(C)CSC(c2ccc(OCCOCCOCCOC)cc2O)=N1 [(S)-4′-(HO)-DADFT-PE EE]
Efficiency (%) (iron clearing efficiency) ([1]; s.c.): 11.4 ± 0.8%
Iron clearing efficiency compared with parent drug (S)-4-(HO)-DADFT [1]: work better than the parent drug

SMILES: CC(C)OC(=O)[C@@]1(C)CSC(c2ccc(O)cc2O)=N1 [(S)-4′-(HO)-DADFT-iPrE]
Efficiency (%) (iron clearing efficiency) ([1]; s.c.): 1.98 ± 0.91%

Brain concentration of administered compound ([2]; 2 h): 0 ± 0 nmol/g wet wt
Brain concentration of administered compound ([2]; 4 h): 0 ± 0 nmol/g wet wt
Brain concentration of administered compound ([2]; 6 h): 0 ± 0 nmol/g wet wt
Brain concentration of administered compound ([2]; 8 h): 0 ± 0 nmol/g wet wt
Heart concentration of administered compound ([2]; 2 h): 4.6 ± 3^ nmol/g wet wt
Heart concentration of administered compound ([2]; 4 h): 0 ± 0 nmol/g wet wt
Heart concentration of administered compound ([2]; 6 h): 0 ± 0 nmol/g wet wt
Heart concentration of administered compound ([2]; 8 h): 0 ± 0 nmol/g wet wt
Kidney concentration of administered compound ([2]; 2 h): 97.1 ± .50 nmol/g wet wt
Kidney concentration of administered compound ([2]; 4 h): 26.6 ± 7.1 nmol/g wet wt
Kidney concentration of administered compound ([2]; 6 h): 13.0 ± 8.0 nmol/g wet wt
Kidney concentration of administered compound ([2]; 8 h): 8.8 ± 2.9 nmol/g wet wt
Liver concentration of administered compound ([2]; 2 h): 48.3 ± 20.3 nmol/g wet wt
Liver concentration of administered compound ([2]; 4 h): 25.0 ± 3.9 nmol/g wet wt
Liver concentration of administered compound ([2]; 6 h): 19.3 ± 2.0 nmol/g wet wt
Liver concentration of administered compound ([2]; 8 h): 12.3 ± 0.8 nmol/g wet wt
Pancreas concentration of administered compound ([2]; 2 h): 5.8 ± 1.3 nmol/g wet wt
Pancreas concentration of administered compound ([2]; 4 h): 0 ± 0 nmol/g wet wt
Pancreas concentration of administered compound ([2]; 6 h): 0 ± 0 nmol/g wet wt
Pancreas concentration of administered compound ([2]; 8 h): 0 ± 0 nmol/g wet wt
concentration at 2 h ([2]; plasma, 2 h, read-out: Plasma concentration of administered compound): 13.1 ± 2.7 µM
Plasma concentration of administered compound ([2]; plasma, 4 h): 2 ± 0.4 µM
concentration at 6 h ([2]; plasma, 6 h, read-out: Plasma concentration of administered compound): 0 nM
concentration at 8 h ([2]; plasma, 8 h, read-out: Plasma concentration of administered compound): 0 nM
SMILES: C[C@]1(C(=O)O)CSC(c2ccc(O)cc2O)=N1 [(S)-4′-(HO)-DADFT, (S)-2-(2,4-dihydroxyphenyl)-4,5-dihydro-4-methyl-4-thiazolecarboxylic acid]
Efficiency (%) (iron clearing efficiency) ([1]; p.o.): 1.0 ± 0.4%
Efficiency (%) (iron clearing efficiency) ([1]; s.c.): 1.1 ± 0.6%

Brain concentration of administered compound ([2]; 2 h): 13.2 ± 4.8 nmol/g wet wt
Brain concentration of metabolite of administered compound ([2]; 2 h): <2.4 nmol/g wet wt
Brain concentration of administered compound ([2]; 4 h): 7.4 ± 0.7 nmol/g wet wt
Brain concentration of metabolite of administered compound ([2]; 4 h): <2.4 nmol/g wet wt
Brain concentration of administered compound ([2]; 6 h): 4.8 ± 3.1 nmol/g wet wt
Brain concentration of metabolite of administered compound ([2]; 6 h): <2.4 nmol/g wet wt
Brain concentration of administered compound ([2]; 8 h): <1.6 ± 0.0 nmol/g wet wt
Brain concentration of metabolite of administered compound ([2]; 8 h): <2.4 nmol/g wet wt
Heart concentration of administered compound ([2]; 2 h): 66.2 ± 2.2 nmol/g wet wt
Heart concentration of metabolite of administered compound ([2]; 2 h): 6.4 ± 0.6 nmol/g wet wt
Heart concentration of administered compound ([2]; 4 h): 32.6 ± 3.6 nmol/g wet wt
Heart concentration of metabolite of administered compound ([2]; 4 h): <4.8 nmol/g wet wt
Heart concentration of administered compound ([2]; 6 h): 28.2 ± 0.7 nmol/g wet wt
Heart concentration of metabolite of administered compound ([2]; 6 h): <4.8 nmol/g wet wt
Heart concentration of administered compound ([2]; 8 h): 26.3 ± 9.7 nmol/g wet wt
Heart concentration of metabolite of administered compound ([2]; 8 h): <4.8 nmol/g wet wt
Kidney concentration of administered compound ([2]; 2 h): 97.5 ± 24.5 nmol/g wet wt
Kidney concentration of metabolite of administered compound ([2]; 2 h): 49.9 ± 21.3 nmol/g wet wt
Kidney concentration of administered compound ([2]; 4 h): 57.0 ± 15.5 nmol/g wet wt
Kidney concentration of metabolite of administered compound ([2]; 4 h): 23.2 ± 1.7 nmol/g wet wt
Kidney concentration of administered compound ([2]; 6 h): 67.2 ± 9.9 nmol/g wet wt
Kidney concentration of metabolite of administered compound ([2]; 6 h): 21.7 ± 6.2 nmol/g wet wt
Kidney concentration of administered compound ([2]; 8 h): 67.4 ± 19.9 nmol/g wet wt
Kidney concentration of metabolite of administered compound ([2]; 8 h): 25.3 ± 2.5 nmol/g wet wt
Liver concentration of administered compound ([2]; 2 h): 111.0 ± 14.0 nmol/g wet wt
Liver concentration of metabolite of administered compound ([2]; 2 h): 43.5 ± 4.5 nmol/g wet wt
Liver concentration of administered compound ([2]; 4 h): 73.8 ± 10.8 nmol/g wet wt
Liver concentration of metabolite of administered compound ([2]; 4 h): 24.6 ± 1.1 nmol/g wet wt
Liver concentration of administered compound ([2]; 6 h): 80.9 ± 10.7 nmol/g wet wt
Liver concentration of metabolite of administered compound ([2]; 6 h): 26.9 ± 5.1 nmol/g wet wt
Liver concentration of administered compound ([2]; 8 h): 81.4 ± 15.9 nmol/g wet wt
Liver concentration of metabolite of administered compound ([2]; 8 h): 25.0 ± 3.6 nmol/g wet wt
Pancreas concentration of administered compound ([2]; 2 h): 37.1 ± 3.8 nmol/g wet wt
Pancreas concentration of metabolite of administered compound ([2]; 2 h): 1.3 ± 2.2 nmol/g wet wt
Pancreas concentration of administered compound ([2]; 4 h): 19.4 ± 1.4 nmol/g wet wt
Pancreas concentration of metabolite of administered compound ([2]; 4 h): 0.0 ± 0.0 nmol/g wet wt
Pancreas concentration of administered compound ([2]; 6 h): 16.5 ± 4.5 nmol/g wet wt
Pancreas concentration of metabolite of administered compound ([2]; 6 h): 0.0 ± 0.0 nmol/g wet wt
Pancreas concentration of administered compound ([2]; 8 h): 9.7 ± 0.7 nmol/g wet wt
Pancreas concentration of metabolite of administered compound ([2]; 8 h): 0.0 ± 0.0 nmol/g wet wt
Plasma concentration of administered compound ([2]; plasma, 2 h): 478.8 ± 36.8 µM
Plasma concentration of metabolite of administered compound ([2]; plasma, 2 h): 8.4 ± 1.8 µM
Plasma concentration of administered compound ([2]; plasma, 4 h): 236.3 ± 42.0 µM
Plasma concentration of metabolite of administered compound ([2]; plasma, 4 h): 4.2 ± 1.0 µM
Plasma concentration of administered compound ([2]; plasma, 6 h): 142.5 ± 29.5 µM
Plasma concentration of metabolite of administered compound ([2]; plasma, 6 h): 1.8 ± 0.6 µM
Plasma concentration of administered compound ([2]; plasma, 8 h): 79.6 ± 13.3 µM
Plasma concentration of metabolite of administered compound ([2]; plasma, 8 h): 0.0 ± 0.0 µM
SMILES: COc1ccc(C2=N[C@@](C)(C(=O)O)CS2)c(O)c1 [(S)-4′-(CH3O)-DADFT]
Efficiency (%) (iron clearing efficiency) ([1]; p.o.): 6.6 ± 2.8%

SMILES: COCCOCCOCCOc1ccc(C2=N[C@@](C)(C(=O)OC(C)C)CS2)c(O)c1 [(S)-4′-(HO)-DADFT-PE iPrE]
Efficiency (%) (iron clearing efficiency) ([1]; p.o.): 9.2 ± 4.4%
Efficiency (%) (iron clearing efficiency) ([1]; s.c.): 25.9 ± 9.2%
Iron clearing efficiency of isopropylester vs ethyl ester ([1]; both administered subcutaneously): significantly more efficient
Iron clearing efficiency compared with parent drug (S)-4-(HO)-DADFT [1]: work better than the parent drug
